Source: ChEMBL document CHEMBL1152890, “Synthesis and evaluation of a novel series of heterocyclic oleanolic acid derivatives with anti-osteoclast formation activity” (Eur J Med Chem, 2009)

Key:
[1] = Antiosteoclast activity in ICR mouse osteoblast like cells co-cultured with bone marrow cells assessed as recovery of 1-alpha,25(OH)2D3-induced TRAP-positive osteoclast like multinucleated cell formation at 20 uM after 6 days drug removal after 2 days relative to control; type: functional
[2] = Cytotoxicity against ICR mouse osteoblast like cells assessed as cell viability at 2 uM after 4 days drug removal after 2 days by MTT assay relative to control; type: cell-based; conditions: read-out: Activity
[3] = Antiosteoclast activity in ICR mouse osteoblast like cells co-cultured with bone marrow cells assessed as recovery of 1-alpha,25(OH)2D3-induced TRAP-positive osteoclast like multinucleated cell formation at 2 uM after 6 days drug removal after 2 days relative to control; type: functional
[4] = Antiosteoclast activity in ICR mouse osteoblast like cells co-cultured with bone marrow cells assessed as effect on 1-alpha,25(OH)2D3-induced TRAP-positive osteoclast like multinucleated cell formation at 2 uM after 6 days medium replaced every 2 days relative to control; type: functional
[5] = Antiosteoclast activity in ICR mouse osteoblast like cells co-cultured with bone marrow cells assessed as effect on 1-alpha,25(OH)2D3-induced TRAP-positive osteoclast like multinucleated cell formation at 20 uM after 6 days medium replaced every 2 days relative to control; type: functional
[6] = Antiosteoclast activity in ICR mouse osteoblast like cells co-cultured with bone marrow cells assessed as effect on 1-alpha,25(OH)2D3-induced TRAP-positive osteoclast like multinucleated cell formation at 200 uM after 6 days medium replaced every 2 days relative to control; type: functional

Which Activity [1] does the source give for `CC1(C)CC[C@]2(C(=O)O)CC[C@]3(C)C(=CC[C@@H]4[C@@]5(C)Cc6cc7ccccc7nc6C(C)(C)[C@@H]5CC[C@]43C)[C@@H]2C1` here?
Its Activity is 18.9%.

What about the viability at 96 h, 2 µM [2] of the same compound?
Its viability at 96 h, 2 µM is 134%.

What about the Activity [3] of the same compound?
The Activity was 73%.

And the Activity [4]?
Its Activity is 39.2%.

And the Activity [5]?
Its Activity is 33.2%.

And the Activity [6]?
Its Activity is 97.2%.

What does the source list for `COC(=O)[C@H](Cc1ccccc1)NC(=O)[C@]12CCC(C)(C)C[C@H]1C1=CC[C@@H]3[C@@]4(C)Cc5nccnc5C(C)(C)[C@@H]4CC[C@@]3(C)[C@]1(C)CC2`?
Activity [1]: 89.5%; Activity [3]: 95.6%; Activity [4]: 82.8%; Activity [5]: 29.6%

What does the source list for `CC[C@H](C)[C@H](NC(=O)[C@]12CCC(C)(C)C[C@H]1C1=CC[C@@H]3[C@@]4(C)Cc5nccnc5C(C)(C)[C@@H]4CC[C@@]3(C)[C@]1(C)CC2)C(=O)OC`?
Activity [3]: 96.2%; Activity [4]: 0.7%; Activity [5]: 0.7%; Activity [6]: 101%

For `COC(=O)CNC(=O)[C@]12CCC(C)(C)C[C@H]1C1=CC[C@@H]3[C@@]4(C)CCC(=O)C(C)(C)[C@@H]4CC[C@@]3(C)[C@]1(C)CC2`, which Activity [1] is on record?
Its Activity is 41.3%.

What about the viability at 96 h, 2 µM [2] of the same compound?
The viability at 96 h, 2 µM was 141%.

What about the Activity [3] of the same compound?
Its Activity is 73.9%.

What about the Activity [4] of the same compound?
Its Activity is 27.2%.

And the Activity [5]?
Its Activity is 0%.

And the Activity [6]?
The Activity was 31.7%.

Which results are given for `CC1(C)CC[C@]2(C(=O)O)CC[C@]3(C)C(=CC[C@@H]4[C@@]5(C)Cc6c([nH]c7ccc(Cl)cc67)C(C)(C)[C@@H]5CC[C@]43C)[C@@H]2C1`?
Activity [1]: 0%; viability at 96 h, 2 µM [2]: 132%; Activity [3]: 73.3%; Activity [4]: 13%; Activity [5]: 0%; Activity [6]: 99.5%

What does the source list for `COC(=O)CNC(=O)[C@]12CCC(C)(C)C[C@H]1C1=CC[C@@H]3[C@@]4(C)Cc5c([nH]c6ccccc56)C(C)(C)[C@@H]4CC[C@@]3(C)[C@]1(C)CC2`?
Activity [1]: 82.9%; Activity [3]: 96.1%; Activity [4]: 32.3%; Activity [5]: 0%; Activity [6]: 86.3%

For `COC(=O)[C@H](Cc1ccccc1)NC(=O)[C@]12CCC(C)(C)C[C@H]1C1=CC[C@@H]3[C@@]4(C)Cc5c([nH]c6ccc(Cl)cc56)C(C)(C)[C@@H]4CC[C@@]3(C)[C@]1(C)CC2`, which Activity [1] is on record?
The Activity was 70.7%.

And the Activity [3]?
Its Activity is 95.2%.

What about the Activity [5] of the same compound?
The Activity was 77.4%.

What does the source list for `COC(=O)[C@H](CC(C)C)NC(=O)[C@]12CCC(C)(C)C[C@H]1C1=CC[C@@H]3[C@@]4(C)Cc5nccnc5C(C)(C)[C@@H]4CC[C@@]3(C)[C@]1(C)CC2`?
Activity [3]: 95.7%; Activity [4]: 1.7%; Activity [5]: 2.8%; Activity [6]: 96.4%

Which viability at 96 h, 2 µM [2] does the source give for `CC[C@H](C)[C@H](NC(=O)[C@]12CCC(C)(C)C[C@H]1C1=CC[C@@H]3[C@@]4(C)Cc5nccnc5C(C)(C)[C@@H]4CC[C@@]3(C)[C@]1(C)CC2)C(=O)O` here?
The viability at 96 h, 2 µM was 109%.

And the Activity [3]?
Its Activity is 81.3%.

And the Activity [4]?
Its Activity is 16.2%.

And the Activity [5]?
Its Activity is 73.7%.

What about the Activity [6] of the same compound?
Its Activity is 52.6%.

Which results are given for `CC(C)C[C@H](NC(=O)[C@]12CCC(C)(C)C[C@H]1C1=CC[C@@H]3[C@@]4(C)Cc5nc6ccccc6nc5C(C)(C)[C@@H]4CC[C@@]3(C)[C@]1(C)CC2)C(=O)O`?
Activity [1]: 92.3%; Activity [4]: 58.3%; Activity [5]: 45.9%; Activity [6]: 86.3%

What does the source list for `CC(C)C[C@H](NC(=O)[C@]12CCC(C)(C)C[C@H]1C1=CC[C@@H]3[C@@]4(C)Cc5nccnc5C(C)(C)[C@@H]4CC[C@@]3(C)[C@]1(C)CC2)C(=O)O`?
Activity [3]: 93.9%; Activity [4]: 21.2%; Activity [5]: 44.8%; Activity [6]: 100.2%

With `COC(=O)[C@@H](NC(=O)[C@]12CCC(C)(C)C[C@H]1C1=CC[C@@H]3[C@@]4(C)Cc5nccnc5C(C)(C)[C@@H]4CC[C@@]3(C)[C@]1(C)CC2)C(C)C` as the compound, how does the Activity [1] read?
Its Activity is 73.1%.

And the viability at 96 h, 2 µM [2]?
The viability at 96 h, 2 µM was 142%.

And the Activity [3]?
Its Activity is 77.6%.

And the Activity [4]?
The Activity was 59.8%.

What about the Activity [5] of the same compound?
Its Activity is 27.8%.

What about the Activity [6] of the same compound?
The Activity was 78.4%.

Which Activity [3] does the source give for `COC(=O)[C@H](C)NC(=O)[C@]12CCC(C)(C)C[C@H]1C1=CC[C@@H]3[C@@]4(C)Cc5nccnc5C(C)(C)[C@@H]4CC[C@@]3(C)[C@]1(C)CC2` here?
The Activity was 96.1%.

And the Activity [4]?
The Activity was 3.8%.

And the Activity [5]?
The Activity was 3.4%.

What about the Activity [6] of the same compound?
The Activity was 93.7%.

What does the source list for `C[C@H](NC(=O)[C@]12CCC(C)(C)C[C@H]1C1=CC[C@@H]3[C@@]4(C)Cc5c([nH]c6ccc(Cl)cc56)C(C)(C)[C@@H]4CC[C@@]3(C)[C@]1(C)CC2)C(=O)O`?
Activity [1]: 0%; Activity [3]: 93.4%; Activity [4]: 1.4%; Activity [5]: 0%; Activity [6]: 98.3%

Which viability at 96 h, 2 µM [2] does the source give for `CC(C)[C@H](NC(=O)[C@]12CCC(C)(C)C[C@H]1C1=CC[C@@H]3[C@@]4(C)Cc5nc6ccccc6nc5C(C)(C)[C@@H]4CC[C@@]3(C)[C@]1(C)CC2)C(=O)O` here?
Its viability at 96 h, 2 µM is 128%.

And the Activity [3]?
Its Activity is 70.6%.

What about the Activity [4] of the same compound?
The Activity was 47.3%.

And the Activity [5]?
The Activity was 42.8%.

And the Activity [6]?
Its Activity is 57.5%.

With `CC1(C)CC[C@]2(C(=O)O)CC[C@]3(C)C(=CC[C@@H]4[C@@]5(C)CC[C@H](O)C(C)(C)[C@@H]5CC[C@]43C)[C@@H]2C1` [OLEANOLIC_ACID] as the compound, how does the Activity [1] read?
The Activity was 98%.

What about the Activity [4] of the same compound?
Its Activity is 89.5%.

And the Activity [5]?
Its Activity is 19.4%.

And the Activity [6]?
Its Activity is 97.5%.
